Measured values: patent US20240197729A1, “ALK-5 Inhibitors and Uses Thereof” (Sumitomo Pharma Oncology, Inc., priority 2021, published 2024)
Like-named read-outs stand apart in the source and are kept apart here.

Tests used:
[1] = system: BMP-6/ALK2/Hepcidin pathway; assay: ALK2 off-target assay, hepcidin mRNA in HepG2 hepatocytes; format: cell-based, human; details: HepG2, 40 ng/ml BMP-6, 3 h; read-out: IC50, hepcidin mRNA expression
Method: In this study, LDN214117 (an ALK2 inhibitor available from Selleck Chemicals S7627) was included as a positive control, and vactosertib (an ALK5 inhibitor available from MedChem Express HY-19928) was included as a negative control.
HepG2 human hepatocytes (ATCC HB-8065) were seeded in EMEM (ATCC30-2003)+10% FBS in 96-well plate and allowed to grow overnight at 5% CO2 at 37° C. The next day, cells were pre-treated with selected compounds (Compound 01, 04 or 05) or one of the control compounds at various concentrations, or with vehicle (DMSO) for one hour. Cells were then stimulated with recombinant human BMP-6 (R&D Systems 507-BP-020) at a final concentration of 40 ng/ml, in the presence of test compound or DMSO for three hours. A no-BMP-6 stimulation condition was included for baseline hepcidin level measurement.
Hepcidin mRNA expression was measured by real-time RT-PCR with Cells-to-CT 1-Step TaqMan Kit (ThermoFisher A25603) following manufacturer's instructions. GAPDH levels were measured, and served as a normalization control. Hepcidin primer: TaqMan HAMP-FAM/MGB 20×(ThermoFisher 4331182); GAPDH primer: TaqMan GAPDH-VIC/MGB 20×(ThermoFisher 4326317E). Delta-delta Ct method was used to obtain relative Hepcidin expression.
The selected compounds and control compounds LDN214117 and vactosertib were tested at drug concentrations of 20 micromolar to 1.22 nanomolar at 4-fold serial dilution. All wells contained the same DMSO concentrations. IC50 values were calculated using nonlinear regression model with GraphPad Prism software. The results of the ALK-2 off-target assay are reported in Table 3B, where “++” indicates 0.1 μM<IC50≤1 μM and “+++” indicates […].

[2] = system: TGF-β1-mediated αSMA expression; assay: Fibroblast to myofibroblast transformation (FMT) assay; details: for IC50: Homo sapiens, Fibroblast
Method: (§4) To test the ability of selected compounds to inhibit the TGF-β1-dependent transition of fibroblasts to myofibroblasts in a relevant disease model of IPF, an FMT assay was performed using lung fibroblasts from IPF patients. In this assay, the transition of fibroblasts to myofibroblasts is determined by the expression of the biomarker alpha smooth muscle actin (α-SMA).
(§5) Primary human bronchial fibroblasts derived from IPF patients were seeded on day zero and the media was refreshed on day two. On day five, selected compounds or controls were added at an eight-point concentration response curve starting at 10 μM (semi-log dilutions). Each drug concentration condition was evaluated in biological duplicates. […] Seventy-two hours following TGF-beta addition, the cells were fixed with formaldehyde. High content imaging evaluating cell number using the nuclear stain DAPI as well as the expression of a-SMA was performed. The following controls were run alongside the selected compounds: vactosertib and the approved IPF drug nintedanib (at an eight-point, semi-log curve with 10 μM starting concentration). As a negative control 0.1% DMSO was also used, matching the DMSO concentration in treated wells. The following calculations were used to determine cell number as well as percent inhibition (PIN) of alpha SMA expression:
(§6) • Segmentation and quantification of αSMA immunoreactivity by an HCA algorithm, with density×area (D×A) output • Data normalization of raw αSMA (D×A) to percentage inhibition (PIN) values, on a plate-to-plate basis
(§7) • DAPI fluorescence applied for HCA-based quantification of the number of imaged cells, on a plate-to-plate basis
(§8) [formula] • μn is the average numbers of nuclei of the vehicle control (TGF-β1+0.1% DMSO) • Xi is the compound number of nuclei

[3] = system: TGF-β1-mediated αSMA expression; details: human, 73 h
Method: as §4, §5, §6, §7, §8

[4] = system: phospho-SMAD-2 (Ser465/Ser467); assay: A549 xenograft assay, p-SMAD2; format: in vivo, mice; details: 75 mg/kg per oral gavage, tumors 4 h after dosing
Text: (§1) To test compounds for inhibition of in vivo on-target activity (ALK5/TGF-bR1 inhibition) as well as potential Janus Kinase (JAK) signaling off-target activity, the A549 murine xenograft model was utilized. An ALK5 inhibitor (e.g., vactosertib) is expected to reduce the amount of the TGF-beta signaling molecule phospho-SMAD-2 (pSMAD2) in the A549 xenograft cells. The TGF-beta-mediated phosphorylation of SMAD2 in A549 cells takes place at amino acid residue four hundred and sixty-five and four hundred and sixty-seven (both are serine residues). A JAK inhibitor (e.g., ruxolitinib) is expected to reduce the phosphorylation of signal transducer and activator of transcription (STAT) proteins such as STAT3 at amino acid residue 705 (tyrosine).
(§2) At eight weeks of age, female athymic nude mice (purchased from Charles River) were injected with approximately 3.5 million A549 cells (ATCC, CCL-185). Specifically, cells were harvested and resuspended in plain RPMI media (no phenol red added) and Matrigel (Corning 356237) at a one to one ratio, and two hundred-microliters were injected into the right hind flank of each mouse. Tumors were measured every three days by caliper and as tumors reached an average of seventy-eighty millimeters cubed, mice were randomized in groups of three. All compounds were resuspended in 1-methyl-2-pyrrolidinone (Sigma 494496) (10%) plus 20% Solutol (Sigma 42966) in water (90%). Vactosertib and ruxolitinib were included as controls as ALK5 signaling inhibitor and JAK signaling inhibitor, respectively. Both controls were given at seventy-five milligrams per kilogram to three mice. The drug suspensions were sonicated for fifteen minutes to generate a fine particle suspension before being given to the mice. Mice were dosed (per oral gavage) with drug at one hundred, seventy-five, fifty, or ten milligrams per kilogram, with three mice per group. A vehicle control group with three mice was used to establish the baseline level of phospho-SMAD-2 in the tumor xenograft.
(§3) Four hours after drug administration, tumors were harvested, snap frozen and stored at negative eighty degrees Celsius until further processing. The phospho-SMAD-2 levels were determined using the Bio-Plex Pro™ Phospho-Smad2 (Ser465/Ser467) Set (BioRad 171V50019M). The phospho STAT3 levels were determined using the bead/antibody set from the MILLIPLEXMAP STAT Cell Signaling Magnetic Bead 5-Plex Kit (Millipore 48-610MAG). Both phospho SMAD-2 levels and phospho STAT3 levels were normalized to ß-Tubulin (MILLIPLEX MAP ß-Tubulin Total Magnetic Bead MAPmate™, Millipore 46-713MAG) or GAPDH (MILLIPLEX MAP GAPDH Total Magnetic Bead MAPmate™, Millipore 46-667MAG) levels from each sample. All analytes were analyzed in a multiplex fashion with the Bio-Plex Pro Cell Signaling Reagent Kit (BioRad 171304006M). Briefly, frozen tumor (fifteen to thirty milligrams) was lysed in 100 μl lysis buffer, processed in bead mill tube, and centrifuged. The resulting lysate was used at 1:50 dilution for the assay according to the manufacturer's instructions. Bead suspension was analyzed using the Luminex system (MAGPIX).

[5] = system: p-STAT3 (Tyr 705); assay: A549 xenograft assay, p-STAT3; format: in vivo, mice
Text: as §1, §2, §3

[6] = system: JAK signaling; assay: JAK selectivity assay, HEK blue IL-12 reporter; format: cell-based; details: 12.5 ng/ml IL-12, 24 h
Method: The cells were purchased from Invivogen (Catalog Nr: hkb-il12) and maintained according to vendor instructions. On the day of the experiment, cells were harvested by repeated tapping of the flask to shake loose the cells attached to the bottom of the flask. Then, cells were harvested, washed and resuspended in DMEM media supplemented with 10% fetal calf serum. 30 Microliters of cell suspension was seeded into a 384-well tissue culture-coated plate containing approximately 10,000 total cells. […] Using the ECHO “Dose Response” software, the test compound was added in duplicate wells with a 3-fold dilution curve. DMSO was back-filled to normalize the DMSO across all wells. […] After 30 minutes of incubation at room temperature, the optical density was measured at 620 nanometer using the Perkin Elmer Envision plate reader. A color change can be detected at this wavelength when secreted alkaline phosphatase, which is triggered by IL-12 signaling, is present in the supernatant. […]

COc1cc(-c2cc(-c3ccc(N4CCNCC4)cc3)cnc2C)cc(OC)c1OC [LDN214117, reference compound]
IC50 [1]: 100 to 1000 nM

COC(=O)c1ccc2c(c1)NC(=O)/C2=C(\Nc1ccc(N(C)C(=O)CN2CCN(C)CC2)cc1)c1ccccc1 [Nintedanib, nintedanib, reference compound]
IC50 ([2]; read-out: Average IC50 (nM), average of donors IPF03, IPF06, IPF08): 833 nM | IC50 ([2]; read-out: IC50 αSMA, donor IPF03): 600 nM | IC50 ([2]; read-out: IC50 αSMA, donor IPF06): 1500 nM | IC50 ([2]; read-out: IC50 αSMA, donor IPF08): 400 nM | IC50 ([2]; read-out: pIC50 αSMA, donor IPF03 (converted)): 631 nM | IC50 ([2]; read-out: pIC50 αSMA, donor IPF06 (converted)): 1580 nM | IC50 ([2]; read-out: pIC50 αSMA, donor IPF08 (converted)): 398 nM | Max PIN (%) ([2]; donor IPF03): 90% | Max PIN (%) ([2]; donor IPF06): 104% | Max PIN (%) ([2]; donor IPF08): 94% | Potentially toxic concentration [3]: 5.0

N#CC[C@H](C1CCCC1)n1cc(-c2ncnc3[nH]ccc23)cn1 [Ruxolitinib, ruxolitinib, reference compound]
Average % p-SMAD2 (Ser 465/467) of vehicle [4]: 120% | Average % p-STAT3 (Tyr 705) of vehicle ([5]; 75 mg/kg per oral gavage, tumors 4 h after dosing): 10% | inhibition of the phosphorylation of STAT3 in tumor samples ([5]; 75 milligrams per kilogram): 90% | IC50 [6]: 31 nM
